Reference: ChEMBL document CHEMBL1932974, “Optimization of a novel kinase inhibitor scaffold for the dual inhibition of JAK2 and FAK kinases” (Bioorg Med Chem Lett, 2012)

Assays:
[1] = molecular target: T1, Focal adhesion kinase 1 (Homo sapiens, UniProt Q05397); assay: Inhibition of human recombinant FAK expressed in baculovirus expression system after 30 mins by time resolved fluorescence assay
[2] = molecular target: T2, Tyrosine-protein kinase JAK2 (Homo sapiens, UniProt O60674); assay: Inhibition of human recombinant JAK2 expressed in baculovirus expression system after 20 mins by time resolved fluorescence assay
T2 sequence (O60674 whole entry): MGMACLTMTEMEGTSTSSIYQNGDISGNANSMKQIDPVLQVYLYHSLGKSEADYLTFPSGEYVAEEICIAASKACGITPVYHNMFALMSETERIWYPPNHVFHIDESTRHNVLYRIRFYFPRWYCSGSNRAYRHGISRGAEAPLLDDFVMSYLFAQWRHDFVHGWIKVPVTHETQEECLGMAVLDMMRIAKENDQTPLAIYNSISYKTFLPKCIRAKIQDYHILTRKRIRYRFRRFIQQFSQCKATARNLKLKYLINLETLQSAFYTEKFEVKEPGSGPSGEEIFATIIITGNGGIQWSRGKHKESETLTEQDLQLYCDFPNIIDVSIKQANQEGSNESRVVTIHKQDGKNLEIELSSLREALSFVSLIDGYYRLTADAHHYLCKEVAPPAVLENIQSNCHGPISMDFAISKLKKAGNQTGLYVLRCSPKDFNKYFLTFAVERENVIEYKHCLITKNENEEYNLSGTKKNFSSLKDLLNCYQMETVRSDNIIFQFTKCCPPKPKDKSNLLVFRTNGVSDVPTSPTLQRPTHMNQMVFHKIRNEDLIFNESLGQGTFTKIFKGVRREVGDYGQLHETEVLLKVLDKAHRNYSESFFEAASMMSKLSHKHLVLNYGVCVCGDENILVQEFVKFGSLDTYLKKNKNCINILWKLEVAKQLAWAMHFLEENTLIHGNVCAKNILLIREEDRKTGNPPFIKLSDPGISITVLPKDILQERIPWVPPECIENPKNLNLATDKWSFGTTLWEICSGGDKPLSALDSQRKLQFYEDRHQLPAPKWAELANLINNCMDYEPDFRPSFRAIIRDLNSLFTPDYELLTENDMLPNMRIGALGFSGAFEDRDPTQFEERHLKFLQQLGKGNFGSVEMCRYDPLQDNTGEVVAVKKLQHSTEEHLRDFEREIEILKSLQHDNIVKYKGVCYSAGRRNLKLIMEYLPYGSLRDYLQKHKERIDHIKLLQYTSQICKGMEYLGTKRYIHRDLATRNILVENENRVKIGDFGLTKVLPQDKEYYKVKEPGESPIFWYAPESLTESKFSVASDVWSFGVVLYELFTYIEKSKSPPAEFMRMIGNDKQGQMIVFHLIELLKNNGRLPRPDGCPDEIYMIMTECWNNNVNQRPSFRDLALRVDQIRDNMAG

[3] = molecular target: T1, Focal adhesion kinase 1; assay: Inhibition of FAK in human 293GT cells after 1 hr by luminescence-based spectrophotometry; type: cell-based
[4] = molecular target: T2, Tyrosine-protein kinase JAK2; assay: Inhibition of JAK2 in GM-CSF-stimulated human TF1 cells preincubated for 1 hr prior to challenge
[5] = Metabolic stability in rat liver microsomes; type: ADME, Microsome; conditions: read-out: Stability
[6] = Metabolic stability in human liver microsomes; type: ADME, Microsome; conditions: read-out: Stability
[7] = Metabolic stability in dog liver microsomes; type: ADME, Canis lupus familiaris, Microsome; conditions: read-out: Stability
[8] = Metabolic stability in mouse liver microsomes; type: ADME, Microsome; conditions: read-out: Stability
[9] = AUC (0 to t) in Sprague-Dawley rat at 1 mg/kg, iv; type: ADME, organism-based; design: dose 1 mg/kg, route intravenous; conditions: plasma
[10] = test system: Mus musculus; assay: Inhibition of FAK phosphorylation in human CWR22 cells xenografted in mouse at 55 mg/kg, po administered as a single dose measured at 2 hrs; type: functional; conditions: CWR22, 2 h
[11] = AUC (0 to infinity) in Sprague-Dawley rat at 5 mg/kg, po; type: ADME, organism-based; design: time infinity, dose 5 mg/kg, route oral; conditions: plasma
[12] = Volume of distribution in Sprague-Dawley rat at 1 mg/kg, iv; type: ADME, organism-based; design: dose 1 mg/kg, route intravenous; conditions: in vivo
[13] = Tmax in Sprague-Dawley rat at 5 mg/kg, po; type: ADME, organism-based; design: dose 5 mg/kg, route oral; conditions: in vivo
[14] = Half life in Sprague-Dawley rat at 1 mg/kg, iv; type: ADME, organism-based; design: dose 1 mg/kg, route intravenous; conditions: in vivo
[15] = Plasma protein binding in mouse; type: ADME, cell-free; conditions: read-out: PPB (converted)
[16] = Cmax in Sprague-Dawley rat at 5 mg/kg, po; type: ADME, organism-based; design: dose 5 mg/kg, route oral; conditions: in vivo
[17] = molecular target: T3, Tyrosine-protein kinase JAK3 (Homo sapiens, UniProt P52333); assay: Inhibition of JAK3
T3 sequence (P52333 whole entry): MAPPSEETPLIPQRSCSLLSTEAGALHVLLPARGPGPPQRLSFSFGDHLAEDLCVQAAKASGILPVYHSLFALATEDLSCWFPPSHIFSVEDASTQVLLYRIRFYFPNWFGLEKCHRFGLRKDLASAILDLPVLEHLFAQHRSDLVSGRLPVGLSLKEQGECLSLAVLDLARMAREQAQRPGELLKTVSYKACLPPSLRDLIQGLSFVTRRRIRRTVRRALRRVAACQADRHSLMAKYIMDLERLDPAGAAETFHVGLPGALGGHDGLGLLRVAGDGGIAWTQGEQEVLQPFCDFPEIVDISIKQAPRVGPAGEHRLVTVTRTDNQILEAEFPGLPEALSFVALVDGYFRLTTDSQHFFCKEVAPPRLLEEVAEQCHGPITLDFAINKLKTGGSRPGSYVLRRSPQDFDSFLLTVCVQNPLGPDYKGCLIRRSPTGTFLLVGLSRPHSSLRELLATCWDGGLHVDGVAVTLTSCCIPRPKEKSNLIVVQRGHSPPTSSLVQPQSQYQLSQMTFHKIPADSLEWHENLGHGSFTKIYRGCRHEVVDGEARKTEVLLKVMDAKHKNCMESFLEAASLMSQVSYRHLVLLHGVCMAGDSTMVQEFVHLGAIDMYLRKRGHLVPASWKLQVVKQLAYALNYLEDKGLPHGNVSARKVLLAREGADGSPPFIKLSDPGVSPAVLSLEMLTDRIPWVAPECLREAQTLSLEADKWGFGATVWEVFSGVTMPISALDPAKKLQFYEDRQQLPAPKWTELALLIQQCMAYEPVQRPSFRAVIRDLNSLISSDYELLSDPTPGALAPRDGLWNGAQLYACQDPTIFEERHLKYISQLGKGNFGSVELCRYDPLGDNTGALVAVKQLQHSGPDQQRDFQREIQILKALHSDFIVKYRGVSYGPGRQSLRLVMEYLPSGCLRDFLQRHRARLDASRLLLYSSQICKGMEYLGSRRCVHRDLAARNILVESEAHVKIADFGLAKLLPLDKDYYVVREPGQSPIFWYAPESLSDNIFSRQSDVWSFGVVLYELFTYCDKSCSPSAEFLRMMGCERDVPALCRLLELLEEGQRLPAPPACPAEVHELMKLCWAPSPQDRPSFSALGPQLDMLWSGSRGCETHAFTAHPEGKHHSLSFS

[18] = Oral bioavailability in Sprague-Dawley rat at 5 mg/kg; type: ADME, organism-based; conditions: in vivo
[19] = test system: Mus musculus; assay: Inhibition of JAK2-mediated STAT3 phosphorylation in human CWR22 cells xenografted mouse at 55 mg/kg, po administered as a single dose measured up to 12 hrs; type: functional; conditions: CWR22, 12 h
[20] = molecular target: Insulin receptor (Homo sapiens, UniProt P06213); assay: Inhibition of insulin receptor
Chain of Insulin receptor (P06213 28-758 limits assumed): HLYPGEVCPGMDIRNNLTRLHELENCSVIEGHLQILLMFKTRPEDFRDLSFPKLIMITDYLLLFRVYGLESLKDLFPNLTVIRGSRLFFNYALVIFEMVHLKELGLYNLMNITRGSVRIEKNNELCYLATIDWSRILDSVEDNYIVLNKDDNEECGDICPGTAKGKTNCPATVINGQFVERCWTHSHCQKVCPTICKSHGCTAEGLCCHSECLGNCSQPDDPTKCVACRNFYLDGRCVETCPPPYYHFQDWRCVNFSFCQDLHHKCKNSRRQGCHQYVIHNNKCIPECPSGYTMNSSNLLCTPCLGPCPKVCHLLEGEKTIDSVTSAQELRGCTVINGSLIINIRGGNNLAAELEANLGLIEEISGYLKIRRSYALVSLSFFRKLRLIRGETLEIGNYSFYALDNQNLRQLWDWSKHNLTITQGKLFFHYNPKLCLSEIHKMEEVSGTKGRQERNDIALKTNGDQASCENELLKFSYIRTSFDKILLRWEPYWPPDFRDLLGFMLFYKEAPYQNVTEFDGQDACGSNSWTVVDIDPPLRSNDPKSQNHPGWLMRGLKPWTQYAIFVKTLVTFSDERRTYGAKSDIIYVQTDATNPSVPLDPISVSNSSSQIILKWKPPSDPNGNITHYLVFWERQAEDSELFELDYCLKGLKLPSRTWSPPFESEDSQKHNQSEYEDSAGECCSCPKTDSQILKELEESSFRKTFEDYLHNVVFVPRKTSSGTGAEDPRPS
Chain of Insulin receptor (P06213 763-1382 limits assumed): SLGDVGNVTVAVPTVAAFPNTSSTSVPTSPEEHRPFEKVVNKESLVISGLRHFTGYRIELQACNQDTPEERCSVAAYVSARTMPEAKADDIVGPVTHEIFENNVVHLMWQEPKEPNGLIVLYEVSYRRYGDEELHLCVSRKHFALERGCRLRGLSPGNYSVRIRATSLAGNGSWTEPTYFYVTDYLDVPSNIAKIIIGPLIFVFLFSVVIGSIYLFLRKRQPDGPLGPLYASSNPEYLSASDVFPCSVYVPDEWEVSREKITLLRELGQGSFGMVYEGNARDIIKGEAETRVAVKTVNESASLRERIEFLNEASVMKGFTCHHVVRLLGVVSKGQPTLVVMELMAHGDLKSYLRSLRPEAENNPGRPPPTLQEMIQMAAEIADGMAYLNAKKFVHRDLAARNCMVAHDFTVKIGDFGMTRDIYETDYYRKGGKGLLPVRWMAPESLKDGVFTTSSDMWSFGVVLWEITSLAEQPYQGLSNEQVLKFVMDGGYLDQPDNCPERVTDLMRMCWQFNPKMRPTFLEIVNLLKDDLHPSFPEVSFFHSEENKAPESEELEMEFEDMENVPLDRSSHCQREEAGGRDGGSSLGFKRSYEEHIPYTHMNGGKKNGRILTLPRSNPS

[21] = Clearance in Sprague-Dawley rat at 1 mg/kg, iv; type: ADME, organism-based; design: dose 1 mg/kg, route intravenous; conditions: in vivo

T1 sequence (Q05397 whole entry): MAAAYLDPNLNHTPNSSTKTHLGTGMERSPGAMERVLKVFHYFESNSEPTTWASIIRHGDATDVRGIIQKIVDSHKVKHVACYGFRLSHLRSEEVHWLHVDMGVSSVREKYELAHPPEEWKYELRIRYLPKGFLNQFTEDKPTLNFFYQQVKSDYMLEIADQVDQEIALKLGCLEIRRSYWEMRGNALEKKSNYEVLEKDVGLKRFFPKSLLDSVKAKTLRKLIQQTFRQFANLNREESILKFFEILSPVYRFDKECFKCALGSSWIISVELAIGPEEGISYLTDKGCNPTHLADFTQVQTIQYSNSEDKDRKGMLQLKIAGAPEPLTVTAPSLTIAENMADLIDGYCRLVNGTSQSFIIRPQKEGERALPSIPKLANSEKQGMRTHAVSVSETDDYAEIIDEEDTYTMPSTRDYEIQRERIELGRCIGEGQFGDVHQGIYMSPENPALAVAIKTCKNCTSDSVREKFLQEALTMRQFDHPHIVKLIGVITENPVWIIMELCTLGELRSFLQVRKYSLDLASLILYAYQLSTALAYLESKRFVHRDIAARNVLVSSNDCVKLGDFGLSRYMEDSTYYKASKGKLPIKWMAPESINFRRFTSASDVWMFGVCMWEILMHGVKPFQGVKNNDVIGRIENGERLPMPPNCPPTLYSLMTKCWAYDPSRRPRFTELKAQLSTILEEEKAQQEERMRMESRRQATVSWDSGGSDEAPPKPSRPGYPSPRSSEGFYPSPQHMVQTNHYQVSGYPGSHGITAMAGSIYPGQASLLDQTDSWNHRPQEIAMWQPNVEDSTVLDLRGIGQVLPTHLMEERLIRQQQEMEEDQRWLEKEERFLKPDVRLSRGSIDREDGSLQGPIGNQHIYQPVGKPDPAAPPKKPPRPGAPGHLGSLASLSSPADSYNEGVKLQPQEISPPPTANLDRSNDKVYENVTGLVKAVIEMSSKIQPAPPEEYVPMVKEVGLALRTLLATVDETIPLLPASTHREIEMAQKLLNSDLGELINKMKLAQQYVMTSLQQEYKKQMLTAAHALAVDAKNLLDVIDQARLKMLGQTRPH

Row | IC50 [1] | IC50 [2] | IC50 [3] | IC50 [4] | Structure (SMILES) | other results
1 | 17 nM | 0.2 nM |  |  | COc1cc(Nc2ncc3ccc(-c4ccccc4)n3n2)cc(OC)c1OC | 
2 | 21 nM | 250 nM |  |  | COc1cc(C2CCN(CC(N)=O)CC2)ccc1Nc1ncc2ccc(-c3ccccc3OC)n2n1 | 
3 | 55 nM | 0.6 nM | 690 nM | 41 nM | COc1ccccc1-c1ccc2cnc(Nc3ccc(C4CCN(CC(N)=O)CC4)cc3)nn12 | 
4 | 14 nM | 2 nM | 610 nM | 15 nM | CN(c1ccccc1-c1ccc2cnc(Nc3ccc(C4CCN(CC(N)=O)CC4)cc3)nn12)S(C)(=O)=O | half-life [5]: 6 min; half-life [6]: < 5 min; half-life [7]: 11 min; half-life [8]: 15 min
5 | 5.7 nM | 0.64 nM | 1340 nM | 90 nM | CC(C)(C)NS(=O)(=O)c1cccc(-c2ccc3cnc(Nc4ccc(C5CCN(CC(N)=O)CC5)cc4)nn23)c1 | 
6 | 39 nM | 0.77 nM | 1190 nM | 62 nM | COc1ccc(-c2ccc3cnc(Nc4ccc(C5CCN(CC(N)=O)CC5)cc4)nn23)cn1 | 
7 | 21 nM | 0.22 nM | 660 nM | 60 nM | CS(=O)(=O)Nc1cccc(-c2ccc3cnc(Nc4ccc(C5CCN(CC(N)=O)CC5)cc4)nn23)c1 | 
8 | 48 nM | 0.09 nM | > 10000 nM | 45 nM | CN(c1cccc(-c2ccc3cnc(Nc4ccc(C5CCN(CC(N)=O)CC5)cc4)nn23)c1)S(C)(=O)=O | 
9 | 33 nM | 0.27 nM | 1390 nM | 27 nM | NC(=O)CN1CCC(c2ccc(Nc3ncc4ccc(-c5cccc(CO)c5)n4n3)cc2)CC1 | 
10 | 114 nM | 0.22 nM | > 10000 nM | 29 nM | CS(=O)(=O)c1ccc(-c2ccc3cnc(Nc4ccc(C5CCN(CC(N)=O)CC5)cc4)nn23)cc1 | 
11 | 25 nM | 0.52 nM | 1010 nM | 58 nM | CS(=O)(=O)c1cccc(-c2ccc3cnc(Nc4ccc(C5CCN(CC(N)=O)CC5)cc4)nn23)c1 | 
12 | 14 nM | 2.1 nM | 750 nM | 38 nM | CN(c1ncccc1-c1ccc2cnc(Nc3ccc(C4CCN(CC(N)=O)CC4)cc3)nn12)S(C)(=O)=O | 
13 | 2040 nM | 16 nM | > 10000 nM | 1140 nM | COc1cccnc1-c1ccc2cnc(Nc3ccc(C4CCN(CC(N)=O)CC4)cc3)nn12 | 
14 | > 10000 nM | 85 nM |  |  | NC(=O)CN1CCC(c2ccc(Nc3ncc4ccc(-c5ncccn5)n4n3)cc2)CC1 | 
15 | 551 nM | 8.9 nM |  | 282 nM | NC(=O)CN1CCC(c2ccc(Nc3ncc4ccc(-c5cnccn5)n4n3)cc2)CC1 | 
16 | 122 nM | 13 nM |  | > 1000 nM | NC(=O)CN1CCC(c2ccc(Nc3ncc4ccc(-c5cccc6c5OC(F)(F)O6)n4n3)cc2)CC1 | 
17 | > 1000 nM | 2900 nM |  |  | CN(C)Cc1ccc(-c2ccc3cnc(Nc4ccc(C5CCN(CC(N)=O)CC5)cc4)nn23)cc1 | 
18 | 205 nM |  |  |  | CS(=O)(=O)N1Cc2cccc(-c3ccc4cnc(Nc5ccc(C6CCN(CC(N)=O)CC6)cc5)nn34)c2C1 | 
19 | 167 nM | 6.3 nM |  | 170 nM | NC(=O)CN1CCC(c2ccc(Nc3ncc4ccc(-c5cccc6cccnc56)n4n3)cc2)CC1 | 
20 | 11 nM |  | 1230 nM |  | Cc1cc(-c2ccccc2N(C)S(C)(=O)=O)n2nc(Nc3ccc(C4CCN(CC(N)=O)CC4)cc3)ncc12 | 
21 | 5 nM | 2.5 nM | 420 nM | 12 nM | CN(c1ccccc1-c1cc(Cl)c2cnc(Nc3ccc(C4CCN(CC(N)=O)CC4)cc3)nn12)S(C)(=O)=O | half-life [5]: 21 min; AUC(0-t) [9]: 1320 ng·h/mL; half-life [6]: 11 min; inhibition in vivo at 55 mg/kg [10]: > 75%; AUC(0-inf) [11]: 832 ng·h/mL; Vd [12]: 1.3 L/kg; Tmax [13]: 132 min; half-life [14]: 60 min; fraction unbound [15]: 0.006; Cmax [16]: 185 ng/mL; IC50 [17]: 2.9 nM; half-life [7]: 17 min; bioavailability [18]: 12%; inhibition in vivo at 55 mg/kg [19]: > 75%; IC50 [20]: 380 nM; half-life [8]: 26 min; clearance [21]: 14 mL/min/kg
